Literature values as cited in patent US20260108532A1, “COMPOSITION FOR PREVENTING HEART DISEASES CAUSED BY PULMONARY HYPERTENSION AND TREATING HEART, AND FUNCTIONAL FORMULATION COMPRISING SAME” (CARESIDE CO., LTD., priority 2023, published 2026).

Assays:
[1] = test system: dogs with subclinical (asymptomatic) CMVI; conditions: at 35 days of administration, compared to placebo administered group
[2] = test system: dogs with subclinical myxomatous mitral valve disease (MMVD); conditions: compared with placebo-administered group
[3] = potassium-sparing diuretic such as spironolactone
[4] = dogs; long-term administration

COc1ccc(-c2nc3ccc(C4=NNC(=O)CC4C)cc3[nH]2)cc1 (stereo not shown) [pimobendan, Pimobendan]
LVIDd and LA/Ao on imaging diagnosis [1]: decreased

CC(=O)S[C@@H]1CC2=CC(=O)CC[C@]2(C)[C@H]2CC[C@@]3(C)[C@@H](CC[C@@]34CCC(=O)O4)[C@H]12 [spironolactone, Spironolactone]
increase in heart size and cardiac biomarker concentration on cardiac ultrasound [2]: much smaller | diuretic effect as share of the efficacy of the loop diuretic [3]: ~10%

Cc1cccc(Nc2ccncc2S(=O)(=O)NC(=O)NC(C)C)c1 [torsemide, Torsemide]
ceiling effect [4]: almost no ceiling effect
